Data: article PMC7365463, “Oxfendazole mediates macrofilaricidal efficacy against the filarial nematode Litomosoides sigmodontis in vivo and inhibits Onchocerca spec. motility in vitro” (PLoS Neglected Tropical Diseases, 2020)
Read-outs that look alike come from different tables or passages of the source.

How the values were obtained:
[1] = tested on: Brugia pahangi; set-up: method as in de Burbure 1986 (Ref. 9); conditions: 200L3 (SC), Mastomys, food 56-82mg/kg, 7 days p.i., necropsy 177 days p.t., ref de Burbure 1986 (Ref. 9), cited from earlier work
[2] = tested on: Acanthocheilonema viteae / Brugia pahangi; set-up: method as in Court 1988 (Ref. 10); conditions: 15Ad A.v. (SC) +15Ad B.p. (IP), jirds, 5 days p.i., necropsy 5 weeks p.t., ref Court 1988 (Ref. 10), cited from earlier work
[3] = set-up: method as in earlier work; conditions: dogs; cited from earlier work
[4] = set-up: method as in PMID 25701764; conditions: rat, published data; cited from earlier work
[5] = human
[6] = set-up: method as in PMID 1687815; conditions: rat/sheep/cattle, published data; cited from earlier work
[7] = tested on: L. loa microfilariae; set-up: method as in PMID 30926803; conditions: L. loa mouse model; cited from earlier work
[8] = set-up: method as in earlier work; conditions: in vivo, lack of potential for aneuploidy; cited from earlier work

Row | Structure (SMILES) | Reduction of worm burden ([1]; 7 days ad.lib.) [%] | Reduction of worm burden ([1]; 14 days ad. lib.) [%] | Reduction of worm burden ([2]; SC 50mg/kg 5 cons. days) [%] | Reduction of worm burden ([2]; SC 100mg/kg 5 cons. days) [%] | cardiovascular effects [3] | Bioavailability (F) [4] [%] | clearance [5] [mL/min/kg] | Vd ([5]; Vol. of Distribution (Vss), Final) [L/kg] | CLhep predicted ([5]; hepatocytes) [mL/min/kg] | bioavailability ([5]; po) [%] | Bioavailability (F) [6] [%] | Half-Life (HL), via predicted Vss/CL (human) [h] | Half-Life (HL), dog-hum correlation (human prediction) [h] | Half-Life (HL), rat-hum correlation (human prediction) [h] | predicted human clearance as share of liver blood flow (human prediction) | microfilaricidal efficacy against L. loa [7] | rat micronucleus assay outcome [8]
1 | COC(=O)Nc1nc2cc(C(=O)c3ccc(F)cc3)ccc2[nH]1 [flubendazole] | 100 | 100 | 50 | 100 | – | – | – | – | – | – | – | – | – | – | – | – | –
2 | COC(=O)Nc1nc2ccc([S+]([O-])c3ccccc3)cc2[nH]1 (centres unmarked) [oxfendazole] | – | – | – | – | did not raise safety concerns | ~35 | ~0.4 | ~0.5 | 0.4 | 30 | >50 | 14.4 | 4.2 | 12.1 | ~ 2 % liver blood flow | lacks such a microfilaricidal efficacy | confirmed the in vitro results
